# Test results published in patent publication US20250090513A1, “DOSING REGIMEN OF HIV CAPSID INHIBITOR” (Gilead Sciences, Inc., priority 2023, published 2025).
# Test system: HIV-1
# Assay: Trough LEN concentration associated with antiviral activity (inhibitory quotient-4)
# Conditions: IQ4 threshold / efficacy target
# Text: Lenacapavir (LEN) is currently approved for the treatment of multidrug-resistant HIV-1 infection in combination with other antiretrovirals for heavily treatment-experienced (HTE) individuals. […] Given the importance of oral loading doses in achieving and maintaining concentrations >IQ4, options to make up for missed oral loading doses were considered. A population-pharmacokinetic (PopPK) model was utilized to simulate various dosing scenarios to guide missed oral loading-dose recommendations for the HTE population.
smiles,measurement,value
"CC(C)(C#Cc1ccc(-c2ccc(Cl)c3c(NS(C)(=O)=O)nn(CC(F)(F)F)c23)c([C@H](Cc2cc(F)cc(F)c2)NC(=O)Cn2nc(C(F)(F)F)c3c2C(F)(F)[C@@H]2C[C@H]32)n1)S(C)(=O)=O [LEN, N-((S)-1-(3-(4-chloro-3-(methylsulfonamido)-1-(2,2,2-trifluoroethyl)-1H-indazol-7-yl)-6-(3-methyl-3-(methylsulfonyl)but-1-yn-1-yl)pyridin-2-yl)-2-(3,5-difluorophenyl)ethyl)-2-((3bS,4aR)-5,5-difluoro-3-(trifluoromethyl)-3b,4,4a,5-tetrahydro-1H-cyclopropa [3,4]cyclopenta [1,2-c]pyrazol-1-yl) acetamide]",mean trough LEN concentration associated with high antiviral activity (inhibitory quotient-4 [IQ4]),15.5 ng/mL
